Experimental data as given in US20220356174A1, “PYRIDIN-2-ONE COMPOUNDS USEFUL AS SMARCA2 ANTAGONISTS” (Epizyme, Inc., priority 2018, published 2022).
Where two headings read alike, the source gives them in different places.

Columns and labels:
[1] = biological target: T1, FL-SMARCA2 (full-length human SMARCA2 isoform 1) (Homo sapiens, UniProt P51531); assay: SMARCA2 ATPase activity assay (ADP-Glo, chicken mononucleosome substrate); type: biochemical; conditions: ATPase assay, enzyme 5 nM, ATP 250 uM, chicken mononucleosome 10 nM, 30 min preincubation
T1 construct: FLAG tag (YKDDDDK) (C); made in house; host or cells: Sf21 insect cells (baculovirus, pFastBacI)
T1 sequence (P51531 with tags, fused parts or gaps): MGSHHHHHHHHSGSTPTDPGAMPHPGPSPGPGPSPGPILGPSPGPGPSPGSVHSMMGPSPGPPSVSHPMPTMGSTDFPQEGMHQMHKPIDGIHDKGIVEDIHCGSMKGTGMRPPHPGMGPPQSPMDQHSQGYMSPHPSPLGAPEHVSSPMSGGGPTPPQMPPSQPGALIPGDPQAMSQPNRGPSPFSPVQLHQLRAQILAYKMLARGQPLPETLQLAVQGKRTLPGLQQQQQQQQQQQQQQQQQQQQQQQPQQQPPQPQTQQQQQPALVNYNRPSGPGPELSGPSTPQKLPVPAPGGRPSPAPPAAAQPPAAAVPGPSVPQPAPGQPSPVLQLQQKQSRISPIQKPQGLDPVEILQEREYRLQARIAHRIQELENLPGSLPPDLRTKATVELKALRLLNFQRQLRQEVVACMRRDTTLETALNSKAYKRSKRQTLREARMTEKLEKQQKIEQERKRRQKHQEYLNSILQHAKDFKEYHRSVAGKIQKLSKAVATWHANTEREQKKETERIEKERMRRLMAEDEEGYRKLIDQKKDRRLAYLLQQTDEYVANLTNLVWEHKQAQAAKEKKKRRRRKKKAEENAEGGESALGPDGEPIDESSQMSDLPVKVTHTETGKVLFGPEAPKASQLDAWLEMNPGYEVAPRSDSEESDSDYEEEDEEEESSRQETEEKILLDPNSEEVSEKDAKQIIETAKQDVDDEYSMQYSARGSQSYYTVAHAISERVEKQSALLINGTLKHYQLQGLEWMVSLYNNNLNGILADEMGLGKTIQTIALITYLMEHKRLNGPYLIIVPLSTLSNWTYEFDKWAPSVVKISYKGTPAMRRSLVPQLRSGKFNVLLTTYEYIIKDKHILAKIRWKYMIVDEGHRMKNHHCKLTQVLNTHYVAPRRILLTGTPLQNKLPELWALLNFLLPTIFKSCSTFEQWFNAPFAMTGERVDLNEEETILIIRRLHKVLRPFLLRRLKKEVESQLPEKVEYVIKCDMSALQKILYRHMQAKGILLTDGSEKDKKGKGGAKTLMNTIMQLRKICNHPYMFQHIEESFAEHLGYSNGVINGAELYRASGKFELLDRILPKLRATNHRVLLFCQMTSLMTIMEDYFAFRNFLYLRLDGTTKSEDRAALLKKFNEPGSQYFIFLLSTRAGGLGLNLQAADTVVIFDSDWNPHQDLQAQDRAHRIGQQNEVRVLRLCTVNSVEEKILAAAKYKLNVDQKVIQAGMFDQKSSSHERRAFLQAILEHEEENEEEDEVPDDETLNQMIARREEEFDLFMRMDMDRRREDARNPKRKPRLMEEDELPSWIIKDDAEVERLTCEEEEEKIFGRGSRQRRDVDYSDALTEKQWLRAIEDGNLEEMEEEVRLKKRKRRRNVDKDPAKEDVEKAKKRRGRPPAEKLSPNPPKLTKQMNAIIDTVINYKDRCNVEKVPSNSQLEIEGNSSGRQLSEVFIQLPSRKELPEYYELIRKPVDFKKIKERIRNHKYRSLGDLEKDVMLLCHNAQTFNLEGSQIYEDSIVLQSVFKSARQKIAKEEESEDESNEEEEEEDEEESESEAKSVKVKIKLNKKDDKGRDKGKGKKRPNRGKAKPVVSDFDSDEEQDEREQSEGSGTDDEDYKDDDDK

SMARCA2 = biological target: T2, SMARCA2 (Homo sapiens, UniProt P51531); assay: SMARCA2 FRET nucleosome remodeling activity assay; type: biochemical
T2 construct: FLAG tag (YKDDDDK) (C); made in house; host or cells: Sf21 insect cells (baculovirus, pFastBacI)
T2 sequence (P51531 with tags, fused parts or gaps): as above
Method: The SMARCA2 remodeling assay was initiated by the addition of 2 uL of a nucleosome remodeling assay substrate and ATP mixture (final volume=10 uL). […] The assays were terminated after 15 minutes by the addition of 2 uL EDTA (final concentration of 25 mM). The SMARCA2 remodeling activity was determined by measuring the fluorescence ratio of the Cy3 and Cy5 labels ([…]). The remodeling of the nucleosome substrate causes an increase in the spacing between the Cy3 and Cy5 labels and therefore a reduction in FRET and an increase in Cy3/Cy5 fluorescence ratio.

FL-SMARCA4 = FL-SMARCA4 (Homo sapiens, UniProt P51532); assay: SMARCA4 ATPase activity assay (ADP-Glo, chicken mononucleosome substrate)
Sequence of FL-SMARCA4 (P51532 whole entry): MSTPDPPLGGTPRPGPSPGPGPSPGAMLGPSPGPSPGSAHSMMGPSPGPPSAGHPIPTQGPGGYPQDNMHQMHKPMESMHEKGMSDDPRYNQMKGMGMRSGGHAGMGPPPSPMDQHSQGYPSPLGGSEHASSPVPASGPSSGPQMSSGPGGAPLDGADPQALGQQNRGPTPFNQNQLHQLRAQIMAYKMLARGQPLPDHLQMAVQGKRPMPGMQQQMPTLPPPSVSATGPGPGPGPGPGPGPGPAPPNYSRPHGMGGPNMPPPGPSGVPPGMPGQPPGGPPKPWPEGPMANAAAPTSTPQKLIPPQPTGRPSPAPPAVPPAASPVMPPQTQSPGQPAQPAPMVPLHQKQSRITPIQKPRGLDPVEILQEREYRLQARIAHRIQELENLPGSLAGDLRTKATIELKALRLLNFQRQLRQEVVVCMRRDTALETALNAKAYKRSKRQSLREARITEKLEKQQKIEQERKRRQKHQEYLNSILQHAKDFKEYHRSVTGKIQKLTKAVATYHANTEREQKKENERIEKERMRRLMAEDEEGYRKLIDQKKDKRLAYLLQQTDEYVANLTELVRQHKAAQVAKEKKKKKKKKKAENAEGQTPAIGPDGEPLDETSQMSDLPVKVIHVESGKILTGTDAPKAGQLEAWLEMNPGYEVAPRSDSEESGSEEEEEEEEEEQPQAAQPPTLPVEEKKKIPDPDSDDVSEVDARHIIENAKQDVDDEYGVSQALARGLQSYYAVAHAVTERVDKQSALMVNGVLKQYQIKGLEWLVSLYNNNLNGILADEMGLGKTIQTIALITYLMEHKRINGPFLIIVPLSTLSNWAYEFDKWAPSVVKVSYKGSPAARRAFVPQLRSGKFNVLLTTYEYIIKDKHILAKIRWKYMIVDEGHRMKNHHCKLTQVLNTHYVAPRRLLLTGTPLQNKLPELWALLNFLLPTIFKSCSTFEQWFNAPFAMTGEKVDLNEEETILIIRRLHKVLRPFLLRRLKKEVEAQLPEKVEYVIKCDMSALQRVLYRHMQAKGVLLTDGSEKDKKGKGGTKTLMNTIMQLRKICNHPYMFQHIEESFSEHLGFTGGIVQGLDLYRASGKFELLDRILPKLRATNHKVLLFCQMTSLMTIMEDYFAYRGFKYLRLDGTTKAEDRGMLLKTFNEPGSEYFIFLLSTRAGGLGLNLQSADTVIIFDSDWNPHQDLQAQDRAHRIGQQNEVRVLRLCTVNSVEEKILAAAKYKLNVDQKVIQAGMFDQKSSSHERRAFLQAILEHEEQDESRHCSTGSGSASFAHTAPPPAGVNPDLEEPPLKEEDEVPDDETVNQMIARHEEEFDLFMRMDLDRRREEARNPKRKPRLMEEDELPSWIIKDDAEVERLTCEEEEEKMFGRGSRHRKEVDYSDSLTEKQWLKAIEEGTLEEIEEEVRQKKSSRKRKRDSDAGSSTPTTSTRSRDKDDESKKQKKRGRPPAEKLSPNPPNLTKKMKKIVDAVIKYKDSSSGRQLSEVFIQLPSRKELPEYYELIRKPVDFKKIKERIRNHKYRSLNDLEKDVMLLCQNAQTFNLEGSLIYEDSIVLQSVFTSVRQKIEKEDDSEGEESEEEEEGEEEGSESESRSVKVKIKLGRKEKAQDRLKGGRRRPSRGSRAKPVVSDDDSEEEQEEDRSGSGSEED
Method: Substrates. Chicken erythrocyte mononucleosomes were prepared from fresh chicken blood collected into anticoagulant and filtered through cheesecloth. The filtered chicken blood was diluted in buffer A (10 mM Tris-HCl, pH 7.4, 10 mM NaCl, 3 mM MgCl2) and centrifuged at 500 g for 15 minutes to collect the erythrocytes. Erythrocyte nuclei were harvested by resuspending the pellets in buffer A containing 0.3% NP-40 detergent. The mixture was stirred with a magnetic bar for 10 mins and centrifuged at 4000 g for 10 minutes. Resuspension, stirring and centrifugation was repeated twice more before the final nuclei pellet was resuspended in buffer A+0.3% NP-40 and stored at −80° C. until purification. For nucleosome purification, nuclei aliquots were rapidly thawed and washed five times with buffer B (10 mM Tris-HCl, pH 7.4, 1 mM CaCl2), 1 mM PMSF) and collected by centrifugation at 2800 g for 10 minutes. Pellets were resuspended in buffer B and treated with 100 U/mL micrococcal nuclease for 40 minutes at 37° C. The reaction was terminated by the addition of 2 mM EDTA and was centrifuged at 2800 g for 10 minutes. The nuclei were then lysed by resuspending the pellet in 1 mM EDTA and 1 mM PMSF and passing the mixture through a 22G needle 4 to 5 times. The solution was then centrifuged at 15,000 g for 20 minutes and the supernatant was collected. The remaining pellet was lysed through the syringe twice more and the supernatants were pooled after centrifugation. The pooled supernatants were further purified by size exclusion chromatography (GE Sephacryl S300 HR 50/100) in buffer C (10 mM HEPES, pH 7.5, 10 mM KCl, 1 mM EDTA, 1 mM PMSF, 10% glycerol). Fractions were analyzed by agarose gel electrophoresis and SDS-PAGE and fractions containing mononucleosomes were pooled and stored at −80° C.
The SMARCA2 or SMARCA4 ATPase assays were identical. The SMARCA2 or SMARCA4 ATPase assays were performed in a buffer consisting of 20 mM Bicine (pH 7.5), 10 mM KCl, 1 mM MgCl2, 1 mM TCEP, 0.005% BSG, and 0.002% Tween 20, prepared on the day of use. Compounds in 100% DMSO were 3-fold serially diluted to produce a 10 point curve for IC50 determination and 0.2 uL were transferred into polypropylene 384-well V-bottom plates (Greiner) using an Echo liquid handler (Labcyte). DMSO (0.2 uL) was added to Columns 11, 12, 23, 24, rows A-H for the maximum signal control and 0.2 uL doxorubicin, a known DNA intercalator, was added to columns 11, 12, 23, 24, rows I-P for the minimum signal control. The SMARCA2 or SMARCA4 enzyme (10 uL) was added to the compounds and allowed to incubate with the compounds for 30 min at room temperature. The SMARCA2 or SMARCA4 ATPase assay was initiated by the addition of 10 uL chicken mononucleosome and ATP mixture (final volume=20 uL). The final concentrations of the assay components were as follows: SMARCA2 or SMARCA4 was 5 nM, ATP was 250 uM, chicken mononucleosome was 10 nM, doxorubicin in the minimum signal control wells was 50 uM, and the DMSO concentration was 1%. 5 uL of the reaction mixture was transferred from the 384-well polypropylene plate to a white opaque polystyrene 384-well plate. At 60 minutes, the assays were terminated by the addition of 5 uL ADP-Glo™ Reagent (Promega). After 40 minutes, the luciferase reaction was initiated by the addition of 10 uL of Kinase Detection Reagent (Promega) and incubated for 1 hour. The ADP product generated from the SMARCA2 or SMARCA4 ATPase reaction was determined via luminescence intensity.

A549 cells = assay: High-throughput proliferation (HTP) assay for A549 cells (CellTiter-Glo, 7 days); type: cell-based; conditions: Homo sapiens, 168 h, read-out: A549 SMARCA2 IC50
Summary of the method: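 A549 cells plated at 62.5 cells/well in F12K + 10% HI-FBS onto pre-dispensed compound, grown 7 days at 37° C., 5% CO2. Viability by CellTiter-Glo luminescence after 30 min at RT; EC50/IC50 from DMSO (0%) and 10 μM Doxorubicin (100%) inhibition controls.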

H358 cells = assay: High-throughput proliferation (HTP) assay for H358 cells (CellTiter-Glo, 7 days); type: cell-based; conditions: Homo sapiens, NCI-H358, 168 h, read-out: H358 SMARCA2 IC50
Summary of the method: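 Cells were plated at 1,000 cells/well in RPMI 1640 + 10% HI-FBS + 1% pen/strep on pre-dispensed compound and incubated 7 days at 37 °C, 5% CO2. Viability was read as ATP luminescence with CellTiter-Glo after 30 min at RT. DMSO served as 0% and 10 µM doxorubicin as 100% inhibition for EC50/IC50.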

[2] = FL-SMARCA4 IC50, Table 3.2, ATPase assay, enzyme 5 nM, ATP 250 uM, chicken mononucleosome 10 nM, 30 min preincubation
[3] = Table 3d.1, read-out: FL-SMARCA2 IC>50
[4] = FL-SMARCA4 IC>50, Table 3c.2, ATPase assay, enzyme 5 nM, ATP 250 uM, chicken mononucleosome 10 nM, 30 min preincubation

| SMILES | IC50 ([1]; Table 3.1) [nM] | IC50 (SMARCA2) [nM] | IC50 (FL-SMARCA4; [2]) [nM] | IC50 (A549 cells) [nM] | IC50 (H358 cells) [nM] | IC50 [1, 3] [nM] | IC50 (FL-SMARCA4; FL-SMARCA4 IC50) [nM] | IC50 ([1]; Table 3c.1) [nM] | IC50 (FL-SMARCA4; [4]) [nM] |
| --- | --- | --- | --- | --- | --- | --- | --- | --- | --- |
| O=C(Nc1cc(F)c(=O)n(CC(F)(F)F)c1)c1cc(Cl)c(Cl)s1 [Compound 141] | 94.1 | 399 | 352 | – | – | – | – | – | – |
| CCn1cc(NC(=O)c2cnc(C#N)s2)cc(F)c1=O [Compound 150] | 26.6 | 21.7 | 94.8 | – | – | – | – | – | – |
| N#Cc1ncc(C(=O)Nc2cc(Cl)c(=O)n(CC(F)(F)F)c2)s1 [Compound 137] | 26 | 29 | 111 | – | – | – | – | – | – |
| O=C(Nc1cc(F)c(=O)n(CCF)c1)c1cc(Cl)c(C(F)F)s1 [Compound 290] | 136 | 407 | 680 | – | – | – | – | – | – |
| N#Cc1sc(C(=O)Nc2cc(Cl)c(=O)n(CC(F)(F)F)c2)cc1Cl [Compound 131] | 113 | 171 | 303 | – | – | – | – | – | – |
| O=C(Nc1cc(F)c(=O)n(CCF)c1)c1cnc(C(F)F)s1 [Compound 295] | 173 | 499 | 736 | – | – | – | – | – | – |
| CCn1cc(NC(=O)c2cc(Cl)c(C#N)s2)cc(F)c1=O [Compound 128] | 78.7 | 223 | 161 | – | – | – | – | – | – |
| CCn1cc(NC(=O)c2cc(Cl)c(Cl)n2C)ccc1=O [Compound 1] | 2720 | 7120 | 39600 | – | – | – | – | – | – |
| CCn1cc(NC(=O)c2cnc(C#N)s2)cc(Cl)c1=O [Compound 136] | 57.7 | 28.8 | 184 | – | – | – | – | – | – |
| O=C(Nc1cc(F)c(=O)n(CC(F)F)c1)c1cnc(C(F)(F)F)s1 [Compound 297, N-(1-(2,2-difluoroethyl)-5-fluoro-6-oxo-1,6-dihydropyridin-3-yl)-2-(trifluoromethyl)thiazole-5-carboxamide] | 75.7 | – | 448 | 2090 | > 10000 | – | – | – | – |
| O=C(Nc1cc(F)c(=O)n(CC(F)F)c1)c1cc(C#CC2CNCCO2)c(Cl)s1 (centres unmarked) [Compound 109d] | – | – | – | > 10000 | > 10000 | 1060 | 3160 | – | – |
| N#Cc1cc(C(=O)Nc2cc(C#N)c(=O)n(CC(F)F)c2)sc1C(F)(F)F [Compound 56d] | – | – | – | 6240 | > 10000 | 98.4 | 535 | – | – |
| O=C(Nc1cc(F)c(=O)n(CC(F)F)c1)c1cc(C#CC2COC2)c(Cl)s1 [Compound 343] | 23 | – | 108 | 492 | > 10000 | – | – | – | – |
| N#Cc1sc(C(=O)Nc2cc(F)c(=O)n(CC(F)F)c2)cc1C#C[C@H]1C[C@@H](O)C1 [Compound 105d] | – | – | – | 4300 | > 10000 | 31.4 | 90.6 | – | – |
| O=C(Nc1cc(F)c(=O)n(CC(F)F)c1)c1cc(C#Cc2ccncn2)c(Cl)s1 [Compound 59c] | – | – | – | 1190 | 2030 | – | – | 132 | 379 |
| O=C(Nc1cc(F)c(=O)n(CC(F)F)c1)c1cc(C#CC2COCCO2)c(Cl)s1 (centres unmarked) [Compound 114d] | – | – | – | 2730 | > 10000 | 112 | 372 | – | – |
| Cc1cc(C#Cc2cc(C(=O)Nc3cc(C#N)c(=O)n(CC(F)F)c3)sc2Cl)sn1 [Compound 92d] | – | – | – | 1990 | > 10000 | 31.3 | 155 | – | – |
| C#Cc1cc(NC(=O)c2cc(F)c(Cl)s2)cn(CC(F)F)c1=O [Compound 342] | 278 | – | 738 | 9490 | > 10000 | – | – | – | – |
| O=C(Nc1cc(F)c(=O)n(CC(F)F)c1)c1cc(C#CC2CCNC2)c(Cl)s1 (centres unmarked) [Compound 106d] | – | – | – | > 10000 | > 10000 | 2180 | 5630 | – | – |
| C[C@]1(C#Cc2cc(C(=O)Nc3cc(F)c(=O)n(CC(F)F)c3)sc2Cl)C[C@@H](O)C1 [Compound 136d] | – | – | – | 2220 | > 10000 | 41.9 | 85.2 | – | – |
| Cc1sc(C(=O)Nc2cc(F)c(=O)n(CC(F)F)c2)cc1C#CC1COC1 [Compound 92c] | – | – | – | 2330 | > 10000 | – | – | 120 | 346 |

| SMILES | IC50 ([1]; Table 3.1) [nM] | IC50 (SMARCA2) [nM] | IC50 (FL-SMARCA4; [2]) [nM] | IC50 (A549 cells) [nM] | IC50 (H358 cells) [nM] | IC50 [1, 3] [nM] | IC50 (FL-SMARCA4; FL-SMARCA4 IC50) [nM] | IC50 ([1]; Table 3c.1) [nM] | IC50 (FL-SMARCA4; [4]) [nM] |
| --- | --- | --- | --- | --- | --- | --- | --- | --- | --- |
| O=C(Nc1cc(F)c(=O)n(CC(F)F)c1)c1cc(C#Cc2cn3c(n2)COCC3)c(Cl)s1 [Compound 90d] | – | – | – | > 10000 | > 10000 | 1390 | 2710 | – | – |
| Cn1ccc(C#Cc2cc(C(=O)Nc3cc(F)c(=O)n(CC(F)F)c3)sc2Cl)n1 [Compound 144c] | – | – | – | 1680 | > 10000 | – | – | 20.1 | 69.1 |
| O=C(Nc1cc(F)c(=O)n(CC(F)F)c1)c1cc(C#Cc2cncnc2)c(Cl)s1 [Compound 346] | 181 | – | 606 | 5240 | > 10000 | – | – | – | – |
| CNC(=O)c1cccc(C#Cc2cc(C(=O)Nc3cc(F)c(=O)n(CC(F)F)c3)sc2Cl)c1 [Compound 86c] | – | – | – | 1730 | > 10000 | – | – | 17.2 | 45.1 |
| Cc1ncc(C#Cc2cc(C(=O)Nc3cc(F)c(=O)n(CC(F)F)c3)sc2Cl)s1 [Compound 39c] | – | – | – | 1370 | > 10000 | – | – | 78 | 143 |
| CN(C)Cc1ncc(C#Cc2cc(C(=O)Nc3cc(F)c(=O)n(CC(F)F)c3)sc2Cl)n1C [Compound 148c] | – | – | – | 4250 | > 10000 | – | – | 146 | 432 |
| O=C(Nc1cc(F)c(=O)n(CC(F)F)c1)c1cc(-c2ccco2)on1 [Compound 124d] | – | – | – | > 10000 | > 10000 | > 50000 | > 50000 | – | – |
| O=C1C[C@@H](C#Cc2cc(C(=O)Nc3cc(F)c(=O)n(CC(F)F)c3)sc2Cl)CCN1 [Compound 62d] | – | – | – | > 10000 | > 10000 | 22.5 | 57.1 | – | – |
| NCc1nc(C#Cc2cc(C(=O)Nc3cc(F)c(=O)n(CC(F)F)c3)sc2Cl)cs1 [Compound 125c] | – | – | – | 4460 | > 10000 | – | – | 52.2 | 166 |
| N#Cc1sc(C(=O)Nc2cc(F)c(=O)n(CC(F)F)c2)cc1C#CC1CCOCC1 [Compound 102d] | – | – | – | 1050 | > 10000 | 19.4 | 46.4 | – | – |
| Cc1nc2cc(C#Cc3cc(C(=O)Nc4cc(F)c(=O)n(CC(F)F)c4)sc3Cl)ccc2[nH]1 [Compound 141c] | – | – | – | 6020 | > 10000 | – | – | 28 | 59.8 |
| O=C1CC(C#Cc2cc(C(=O)Nc3cc(F)c(=O)n(CC(F)F)c3)sc2Cl)CN1 (centres unmarked) [Compound 116c] | – | – | – | 3790 | > 10000 | – | – | 206 | 548 |
| CNC(=O)c1cc(C#Cc2cc(C(=O)Nc3cc(F)c(=O)n(CC(F)F)c3)sc2Cl)ccn1 [Compound 130c] | – | – | – | 1210 | > 10000 | – | – | 16.6 | 44 |
| CNC(=O)c1cc(C#Cc2cc(C(=O)Nc3cc(F)c(=O)n(CC(F)F)c3)sc2Cl)nn1C [Compound 154c] | – | – | – | > 10000 | > 10000 | – | – | 71.1 | 147 |
| NC(=O)Cn1cc(C#Cc2cc(C(=O)Nc3cc(F)c(=O)n(CC(F)F)c3)sc2Cl)cn1 [Compound 120c] | – | – | – | > 10000 | > 10000 | – | – | 90.9 | 239 |
| N#Cc1sc(C(=O)Nc2cc(F)c(=O)n(CC(F)F)c2)cc1C#CC1COC1 [Compound 177c] | – | – | – | 1370 | > 10000 | – | – | 12.7 | 79.7 |
| O=C(Nc1cc(F)c(=O)n(CC(F)F)c1)c1cc(C#CC2CCOCC2)c(Cl)s1 [Compound 22c] | – | – | – | 664 | > 10000 | – | – | 30.1 | 60.8 |
| O=C(Nc1cc(F)c(=O)n(CC(F)F)c1)c1cc(C#CC23CC(CO)(C2)C3)c(Cl)s1 [Compound 135d] | – | – | – | 2380 | > 10000 | 160 | 334 | – | – |
| O=C(Nc1cc(C2COC2)c(=O)n(CC(F)F)c1)c1cc(F)c(Cl)s1 [Compound 155c] | – | – | – | > 10000 | > 10000 | – | – | 30800 | 36200 |
| CC1(C)CC(C#Cc2cc(C(=O)Nc3cc(F)c(=O)n(CC(F)F)c3)sc2Cl)CC(C)(C)N1 [Compound 121d] | – | – | – | 5020 | 7380 | 16800 | 17300 | – | – |
